Consider 28 compounds from US12421222B2 (AUGUSTINE THERAPEUTICS, priority 2021, dated 2025).

Each structure is given as a SMILES string. Where only a bound is given, the exact number is not on record here.

For the assay, the system named is acetylated tubulin (Lys40) in HeLa cells. Briefly: Acetylated α-tubulin measurement in vitro (immunocytochemistry). The format is cell-based. The following applies: Homo sapiens, 6 hours incubation, acetylated tubulin (Lys40) by immunocytochemistry, read-out: IC50 (Tubulin deacetylation). Here is the method:
HeLa cells were cultured in UltraCulture serum-free medium (Lonza) supplemented with 2 mM glutamine (Lonza). Assays were performed at 96-well or 384-well format, differences in assay protocols are detailed in Table 6. Cells per well were plated and incubated overnight at 37° C. overnight in a humidified atmosphere containing 5% CO2. Cell density and seeding volumes are detailed in Table 6. Compounds (dissolved in 100% DMSO) or DMSO (vehicle) were added manually by diluting them in culture medium at 10× final assay concentration and adding 10 μL to cells (96-well protocol). Alternatively, 50 nL compound was added directly to the cell culture using the Echo650 (Labcyte) (384-well protocol). In this assay, the final assay concentration of DMSO is 0.1%-0.4%. Trichostatin A (TSA) was used as a positive control. Cells were incubated with compounds at 37° C. in a humidified atmosphere containing 5% CO2 for 6 hours. Levels of acetylated tubulin (Lys40) were assessed by immunocytochemistry using target-specific antibodies. Cells were fixed with 4% PFA at RT as detailed in Table 6. After 2-3 wash steps with PBS, cells were permeabilized with 0.5% Triton in PBS at RT for 10 minutes followed by 1-2 washes with PBS. To avoid non-specific antibody staining, cells were blocked with 3% BSA in PBS at room temperature for 1 hour. […] Cells were washed 2-3 times with PBS and labelled for 1 h at RT with goat anti-mouse conjugated with Alexa 647 (Thermofisher) and goat anti-rabbit conjugated with Alexa 555 (Thermofisher) secondary antibodies, diluted in 1% BSA to a final concentration of 1:1000. Simultaneously, nuclei were stained with 1:10000-1:15000 Hoechst (Thermofisher). Incubation time and temperature of the primary antibodies are detailed in Table 6. Cells were washed 2-3 times with PBS and they were imaged with the Operetta CLS or Opera Phenix (PerkinElmer). Imaging is further detailed in Table 6. For imaging analysis, the Harmony analysis software (PerkinElmer) was used. Cytoplasmic (defined by total α-tubulin staining) intensities per well were used for α-tubulin (acetylated and total) quantification. Intensities were measured per cell and then averaged per well. Mean intensity levels of acetylated tubulin were normalized to the mean intensity levels of total tubulin. The changes in acetylated tubulin were normalized for each plate using GraphPad Prism software: tubulin acetylation in vehicle (DMSO)-treated cells were set to 0% while tubulin acetylation in TSA-treated cells were set to 100%. EC50 values were calculated using the log(inhibitor) vs. response—Variable slope (four parameters) nonlinear regression in GraphPad Prism software.

As for `CC(NC(=O)CO)c1ccc(C(=O)CSc2nc3cnc(C(F)(F)F)cc3o2)s1` (stereo in doubt) [Example 129, (S)-2-hydroxy-N-(1-(5-(2-((6-(trifluoromethyl)oxazolo[4,5-c]pyridin-2-yl)thio)acetyl)thiophen-2-yl)ethyl)acetamide], the IC50 – broadly, the concentration that inhibits the measured activity by half – lay within 0.1 to 0.5 µM. As to `O=C(CSc1nc(C(F)(F)F)nc2ncccc12)c1ccc(CN2CCC(O)C2=O)s1` (stereo in doubt) [Example 155, (S)-3-hydroxy-1-((5-(2-((2-(trifluoromethyl)pyrido[2,3-d]pyrimidin-4-yl)thio)acetyl)thiophen-2-yl)methyl)pyrrolidin-2-one], the IC50 was at most 0.1 µM. As for `O=C(CSc1nc(C(F)(F)F)nc2ncccc12)c1ccc(CN2CCC(O)C2=O)s1` (stereo in doubt) [Example 156, (R)-3-hydroxy-1-((5-(2-((2-(trifluoromethyl)pyrido[2,3-d]pyrimidin-4-yl)thio)acetyl)thiophen-2-yl)methyl)pyrrolidin-2-one], the IC50 was at most 0.1 µM.

As to `Cc1nc(SCC(=O)c2ccc(CNC(=O)C(C)(C)C)s2)c2cnn(C)c2n1` [Example 5, N-((5-(2-((1,6-dimethyl-1H-pyrazolo[3,4-d]pyrimidin-4-yl)thio)acetyl)thiophen-2-yl)methyl)pivalamide], the IC50 was above 3.33 µM. For `Cc1nc(SCC(=O)c2ccc(CNC(=O)C(C)(C)C)s2)c2cccnc2n1` [Example 7, N-((5-(2-((2-methylpyrido[2,3-d]pyrimidin-4-yl)thio)acetyl)thiophen-2-yl)methyl)pivalamide], the IC50 lay in the range of 0.1 to 0.5 µM.

With `Cc1nc(SCC(=O)c2ccc(CNC(=O)C(C)(C)C)s2)c2ccc(Cl)cc2n1` [Example 8, N-((5-(2-((7-chloro-2-methylquinazolin-4-yl)thio)acetyl)thiophen-2-yl)methyl)pivalamide], the concentration for half-maximal inhibition (IC50) was above 3.33 µM.

`Cc1nc(SCC(=O)c2ccc(CNC(=O)C(C)(C)C)s2)c2cc(F)ccc2n1` [Example 9, N-((5-(2-((6-fluoro-2-methylquinazolin-4-yl)thio)acetyl)thiophen-2-yl)methyl)pivalamide]: the IC50 lay in the range of 1 to 3.33 µM.

As for `Cc1nc(SCC(=O)c2ccc(CNC(=O)C(C)(C)C)s2)c2ccc(F)cc2n1` [Example 10, N-((5-(2-((7-fluoro-2-methylquinazolin-4-yl)thio)acetyl)thiophen-2-yl)methyl)pivalamide], the IC50 lay in the range of 1 to 3.33 µM. As to `COc1ccc2c(SCC(=O)c3ccc(CNC(=O)C(C)(C)C)s3)nc(C)nc2c1` [Example 12, N-((5-(2-((7-methoxy-2-methylquinazolin-4-yl)thio)acetyl)thiophen-2-yl)methyl)pivalamide], the IC50 fell in the range of 1 to 3.33 µM. For the compound `CN(C)c1nc(SCC(=O)c2ccc(CNC(=O)C(C)(C)C)s2)c2ccccc2n1` [Example 16, N-((5-(2-((2-(dimethylamino)quinazolin-4-yl)thio)acetyl)thiophen-2-yl)methyl)pivalamide], the IC50 fell in the range of 1 to 3.33 µM. Regarding `COc1ccc2nc(C)nc(SCC(=O)c3ccc(CNC(=O)C(C)(C)C)s3)c2c1` [Example 17, N-((5-(2-((6-methoxy-2-methylquinazolin-4-yl)thio)acetyl)thiophen-2-yl)methyl)pivalamide], the IC50 fell in the range of 0.5 to 1 µM. `Cc1nc(SCC(=O)c2ccc(CNC(=O)C(C)(C)C)s2)c2ncccc2n1` [Example 18, N-((5-(2-((2-methylpyrido[3,2-d]pyrimidin-4-yl)thio)acetyl)thiophen-2-yl)methyl)pivalamide]: the IC50 lay within 1 to 3.33 µM. As to `CC(C)(C)C(=O)NCc1ccc(C(=O)CSc2nc(C(F)F)nc3ccccc23)s1` [Example 19, N-((5-(2-((2-(difluoromethyl)quinazolin-4-yl)thio)acetyl)thiophen-2-yl)methyl)pivalamide], the IC50 is 1 to 3.33 µM. Consider `Cn1ncc2c(SCC(=O)c3ccc(CNC(=O)C(C)(C)C)s3)nc(C(F)(F)F)nc21` [Example 20, N-((5-(2-((1-methyl-6-(trifluoromethyl)-1H-pyrazolo[3,4-d]pyrimidin-4-yl)thio)acetyl)thiophen-2-yl)methyl)pivalamide], for which the IC50 is 0.1 to 0.5 µM. Regarding `Cn1ncc2c(SCC(=O)c3ccc(CNC(=O)C(C)(C)C)s3)nc(C(F)F)nc21` [Example 21, N-((5-(2-((6-(difluoromethyl)-1-methyl-1H-pyrazolo[3,4-d]pyrimidin-4-yl)thio)acetyl)thiophen-2-yl)methyl)pivalamide], the concentration for half-maximal inhibition (IC50) was in the range of 1 to 3.33 µM. Regarding `Cn1cc2c(SCC(=O)c3ccc(CNC(=O)C(C)(C)C)s3)nc(C(F)(F)F)nc2n1` [Example 22, N-((5-(2-((2-methyl-6-(trifluoromethyl)-2H-pyrazolo[3,4-d]pyrimidin-4-yl)thio)acetyl)thiophen-2-yl)methyl)pivalamide], the IC50 was 0.1 to 0.5 µM. With `Cc1ccc2oc(SCC(=O)c3ccc(CNC(=O)C(C)(C)C)s3)nc2n1` [Example 23, N-((5-(2-((5-methyloxazolo[4,5-b]pyridine-2-yl)thio)acetyl)thiophen-2-yl)methyl)pivalamide] the figure was 0.5 to 1 µM; with `Cn1ncc2c(SCC(=O)c3ccc(CN4CCCC4=O)s3)ncnc21` [Example 25, 1-((5-(2-((1-methyl-1H-pyrazolo[3,4-d]pyrimidin-4-yl)thio)acetyl)thiophen-2-yl)methyl)pyrrolidin-2-one], above 3.33 µM. As to `Cn1ncc2c(SCC(=O)c3ncc(CNC(=O)C(C)(C)C)s3)ncnc21` [Example 27, N-((2-(2-((1-methyl-1H-pyrazolo[3,4-d]pyrimidin-4-yl)thio)acetyl)thiazol-5-yl)methyl)pivalamide], the IC50 is 1 to 3.33 µM. With `Cn1ncc2c(SCC(=O)c3cc(F)c(CNC(=O)C(C)(C)C)s3)ncnc21` [Example 28, N-((3-fluoro-5-(2-((1-methyl-1H-pyrazolo[3,4-d]pyrimidin-4-yl)thio)acetyl)thiophen-2-yl)methyl)pivalamide], the IC50 is 1 to 3.33 µM. With `Cn1ncc2c(SCC(=O)c3ccc(CNC(=O)c4ccccc4)s3)ncnc21` [Example 30, N-((5-(2-((1-methyl-1H-pyrazolo[3,4-d]pyrimidin-4-yl)thio)acetyl)thiophen-2-yl)methyl)benzamide] the figure was 1 to 3.33 µM; with `Cn1ncc2c(SCC(=O)c3ccc(CNC(=O)C4CC4)s3)ncnc21` [Example 31, N-((5-(2-((1-methyl-1H-pyrazolo[3,4-d]pyrimidin-4-yl)thio)acetyl)thiophen-2-yl)methyl)cyclopropanecarboxamide], 1 to 3.33 µM; with `CN(Cc1ccc(C(=O)CSc2ncnc3c2cnn3C)s1)C(=O)C1CC1` [Example 34, N-methyl-N-((5-(2-((1-methyl-1H-pyrazolo[3,4-d]pyrimidin-4-yl)thio)acetyl)thiophen-2-yl)methyl)cyclopropanecarboxamide], 1 to 3.33 µM. For `O=C(CSc1nc(C(F)(F)F)nc2ccccc12)c1ccc(CCNC(=O)C2CC2)s1` [Example 36, N-(2-(5-(2-((2-(trifluoromethyl)quinazolin-4-yl)thio)acetyl)thiophen-2-yl)ethyl)cyclopropanecarboxamide], the IC50 was above 3.33 µM. For `CC(C)(C)C(=O)NCc1ccc(C(=O)CSc2nc(C(F)(F)F)nc3ccccc23)s1` [Example 38, N-((5-(2-((2-(trifluoromethyl)quinazolin-4-yl)thio)acetyl)thiophen-2-yl)methyl)pivalamide] the value was 0.5 to 1 µM; for `COc1ccc2nc(C)nc(SCC(=O)c3ccc(CNC(=O)C4CC4(F)F)s3)c2c1` (stereo not shown) [Example 39, 2,2-difluoro-N-((5-(2-((6-methoxy-2-methylquinazolin-4-yl)thio)acetyl)thiophen-2-yl)methyl)cyclopropane-1-carboxamide], 0.5 to 1 µM.

`COc1ccc2nc(C)nc(SCC(=O)c3ccc(CNC(=O)C(F)(F)C(F)(F)F)s3)c2c1` [Example 40, 2,2,3,3,3-pentafluoro-N-((5-(2-((6-methoxy-2-methylquinazolin-4-yl)thio)acetyl)thiophen-2-yl)methyl)propanamide]: the IC50 lay within 0.5 to 1 µM. For `Cn1cc2c(SCC(=O)c3ccc(CNC(=O)C4CC4)s3)nc(C(F)(F)F)nc2n1` [Example 41, N-((5-(2-((2-methyl-6-(trifluoromethyl)-2H-pyrazolo[3,4-d]pyrimidin-4-yl)thio)acetyl)thiophen-2-yl)methyl)cyclopropanecarboxamide] the value was 1 to 3.33 µM.
